# Reference: US5763673A, “Diarylheptanoide derivative and pharmaceutical composition comprising the same” (Kabushiki Kaisha Yakult Honsha, priority 1994, dated 1998)
# Assays:
# 5-lipoxygenase [1] = conditions: background, as reported; cited from earlier work
# [2] = tested on: TPA induced edematization in ears; assay: Ear edema induction test with TPA (12-O-tetradecanoylphorbol-13-acetate); assay type: in vivo, ICR male mouse; conditions: 0.5 mg/ear; for Rate of inhibition (%): 4 h after TPA, relative to rate of edematization of control group taken as 100; for Rate of edematization (%): both sides of right ear, 4 h after TPA (10 μl of 40 μg/ml), control group 161.1
# Experimental: Four hours after the application of TPA, the center of right and left ears was cut out with a punch with a diameter of 6.5 mm to measure the weights. The rate of edematization of ears was calculated according to the following formula: [formula] The rate of edema enlargement inhibition was determined taking the rate of edematization of the control group to which no compound was applied as 100.
# 5-lipoxygenase [3] = assay: 5-Lipoxygenase inhibiting activity (5-HETE production); assay type: biochemical, rat; conditions: RBL-1 5-lipoxygenase; 5-HETE by HPLC; values only in FIG. 1
# Experimental: A sample of 5-lipoxygenase was prepared from basophilic leukemia cells of rat (RBL-1). First, the RBL-1 was cultured in an MEM medium (manufactured by Nissui Pharmaceutical Co.) containing 0.0292% of L-glutamine and 10% of FCS under conditions of 5% CO2 and at 37° C. for 3 days. After culture, the cells were collected by centrifuge (1000 rpm, 10 min., 4° C.) and washed twice with Dulbeccol's PBS (-) (manufactured by Nissui Pharmaceutical Co.) . The cells were suspended in 50 ml of Tris-HCl buffer (pH 7.4) at a concentration of 7.5×10^7 cells/ml. The cell suspension was ultrasonically treated in an ice bath and centrifuged (1300 rpm, 30 min., 4° C.) to obtain a 5- lipoxygenase sample as supernatant.
# 76 μl of 50 mM Tris-HCl buffer (pH 7.4) containing 2.56 mM of CaCl2 and 2.56 mM of ATP and 20 μl of 5-lipoxygenase sample prepared above were added to 2μl of a solution containing a prescribed amount of the diarylheptanoide derivative (1) prepared in Example 1 in DSMO. The mixture was incubated at 37° C. […] The amount of 5-HETE in the supernatant was measured by HPLC (column: Nova-pak 5C18; eluant: a 60:40 acetonitrile:0.05 M KH2 PO4 solution with 5 mM trihexyl bromide added; flow rate: 0.8 ml/min.; wavelength: 235 nm). The amount of 5-HETE produced was calculated from the peak area of the 5-HETE. […]
# ears of mice = assay: Toxicity on application to ears of mice; assay type: in vivo; conditions: 5 mg/ear, 10 times the effective concentration
Compound,5-lipoxygenase inhibiting activity (in words) (5-lipoxygenase [1]),Rate of inhibition (%) [2] [%],Rate of edematization (%) [2] [%],effect compared with comparative compound (6) (in words) [2],effect for inhibiting TPA induced edematization in ears (in words) [2],5-lipoxygenase inhibiting effect (in words) (5-lipoxygenase [3]),toxicity (in words) (ears of mice)
COc1cc(/C=C/C(=O)CCCCc2ccccc2)ccc1O [Yakuchinone-B],exhibiting a 5-lipoxygenase inhibiting activity,–,–,–,–,–,–
COc1cc(CCC(=O)CCCCc2ccccc2)ccc1O [Yakuchinone-A],exhibiting a 5-lipoxygenase inhibiting activity,–,–,–,–,–,–
"O=C(C=Cc1ccc(O)c(O)c1)CCCCc1ccccc1 [(6), 1-(3,4-dihydroxyphenyl)-7-phenyl-1-heptene-3-one, reference compound]",most strong 5-lipoxygenase inhibiting action,84.5,24.9,–,–,–,–
"COc1cc(C=CC(=O)CCCCc2ccccc2)cc(OC)c1O [Compound (1), 1-(3,5-dimethoxy-4-hydroxyphenyl)-7-phenyl-1-heptene-3-one]",–,96.1,6.3,stronger than that of the comparative compound,strong effect for inhibiting TPA induced edematization in ears,strong 5-lipoxygenase inhibiting effect,No toxicity was exhibited
